ChEMBL document CHEMBL1153280, “Synthesis and in vitro activity of dicationic bis-benzimidazoles as a new class of anti-MRSA and anti-VRE agents” (2009)
Converted amounts (≈) assume the structure as drawn.

Tests used:
Format in all cases: functional
Bacteroides fragilis = test: Antibacterial activity against Bacteroides fragilis ATCC 23745 by NCCLS method
Bacillus subtilis = test: Antibacterial activity against Bacillus subtilis ATCC 23857 by NCCLS method
Streptococcus pneumoniae = test: Antibacterial activity against Streptococcus pneumoniae ATCC 6301 by NCCLS method
[1] = tested on: Staphylococcus epidermidis; test: Antibacterial activity against Staphylococcus epidermidis ATCC 12228 by NCCLS method
Bacillus cereus = test: Antibacterial activity against Bacillus cereus ATCC 11778 by NCCLS method
Staphylococcus aureus [2] = test: Antibacterial activity against Staphylococcus aureus ATCC 29213 by NCCLS method
Clostridium perfringens = test: Antibacterial activity against Clostridium perfringens ATCC 10388 by NCCLS method
Enterococcus faecium = test: Antibacterial activity against vancomycin-resistant Enterococcus faecium ATCC 700221 by NCCLS method
Enterococcus faecalis = test: Antibacterial activity against vancomycin-resistant Enterococcus faecalis ATCC 51575 by NCCLS method
Staphylococcus aureus [3] = test: Antibacterial activity against methicillin-resistant Staphylococcus aureus ATCC 33591 by NCCLS method
[4] = tested on: Staphylococcus epidermidis; test: Antibacterial activity against methicillin-resistant Staphylococcus epidermidis ATCC 51625 by NCCLS method
Staphylococcus aureus [5] = test: Antibacterial activity against multidrug-resistant Staphylococcus aureus BAA-39 by NCCLS method

SMILES | MIC (Bacteroides fragilis) | MIC (Bacillus subtilis) | MIC (Streptococcus pneumoniae) | MIC [1] | MIC (Bacillus cereus) | MIC (Staphylococcus aureus [2]) | MIC (Clostridium perfringens) | MIC (Enterococcus faecium) | MIC (Enterococcus faecalis) | MIC (Staphylococcus aureus [3]) | MIC [4] | MIC (Staphylococcus aureus [5])
CC(C)NC(=N)c1ccc(CCc2ccc(-c3nc4cc(C(=N)NC(C)C)ccc4[nH]3)cc2)cc1 | 32 µg/mL (≈ 68.6 µM) | 1 µg/mL (≈ 2.14 µM) | 0.12 µg/mL (≈ 0.257 µM) | 0.25 µg/mL (≈ 0.536 µM) | 0.5 µg/mL (≈ 1.07 µM) | 4 µg/mL (≈ 8.57 µM) | > 32 µg/mL | 1 µg/mL (≈ 2.14 µM) | 2 µg/mL (≈ 4.29 µM) | 4 µg/mL (≈ 8.57 µM) | 1 µg/mL (≈ 2.14 µM) | 8 µg/mL (≈ 17.1 µM)
c1cc(-c2nc3cc(C4=NCCN4)ccc3[nH]2)ccc1CCc1ccc(-c2nc3cc(C4=NCCN4)ccc3[nH]2)cc1 | > 64 µg/mL | > 64 µg/mL | > 64 µg/mL | > 64 µg/mL | > 64 µg/mL | > 64 µg/mL | > 64 µg/mL | > 64 µg/mL | > 64 µg/mL | > 64 µg/mL | > 64 µg/mL | > 64 µg/mL
N=C(NC1CCCC1)c1ccc2[nH]c(-c3ccc(CCc4ccc(-c5nc6cc(C(=N)NC7CCCC7)ccc6[nH]5)cc4)cc3)nc2c1 | > 32 µg/mL | 1 µg/mL (≈ 1.58 µM) | 0.25 µg/mL (≈ 0.394 µM) | < 0.06 µg/mL | 0.5 µg/mL (≈ 0.788 µM) | 1 µg/mL (≈ 1.58 µM) | 4 µg/mL (≈ 6.3 µM) | 0.25 µg/mL (≈ 0.394 µM) | 2 µg/mL (≈ 3.15 µM) | 0.5 µg/mL (≈ 0.788 µM) | 0.12 µg/mL (≈ 0.189 µM) | 1 µg/mL (≈ 1.58 µM)
CC(C)NC(=N)c1ccc2[nH]c(-c3ccc(CCc4ccc(-c5nc6cc(C(=N)NC(C)C)ccc6[nH]5)cc4)cc3)nc2c1 | 0.5 µg/mL (≈ 0.858 µM) | 0.12 µg/mL (≈ 0.206 µM) | < 0.06 µg/mL | < 0.06 µg/mL | 0.12 µg/mL (≈ 0.206 µM) | 0.25 µg/mL (≈ 0.429 µM) | 0.25 µg/mL (≈ 0.429 µM) | 0.12 µg/mL (≈ 0.206 µM) | 0.25 µg/mL (≈ 0.429 µM) | 0.25 µg/mL (≈ 0.429 µM) | 0.125 µg/mL (≈ 0.214 µM) | 0.5 µg/mL (≈ 0.858 µM)
N=C(c1ccc2[nH]c(-c3ccc(CCc4ccc(-c5nc6cc(C(=N)N7CCCC7)ccc6[nH]5)cc4)cc3)nc2c1)N1CCCC1 | 2 µg/mL (≈ 3.3 µM) | 2 µg/mL (≈ 3.3 µM) | > 32 µg/mL | 0.25 µg/mL (≈ 0.412 µM) | 1 µg/mL (≈ 1.65 µM) | 0.5 µg/mL (≈ 0.824 µM) | 2 µg/mL (≈ 3.3 µM) | 2 µg/mL (≈ 3.3 µM) | 16 µg/mL (≈ 26.4 µM) | 0.25 µg/mL (≈ 0.412 µM) | 0.25 µg/mL (≈ 0.412 µM) | 0.5 µg/mL (≈ 0.824 µM)
COc1ccc(CCc2ccc(-c3nc4ccc(C(=N)NC(C)C)cc4[nH]3)cc2)cc1 | > 32 µg/mL | 4 µg/mL (≈ 9.7 µM) | 8 µg/mL (≈ 19.4 µM) | 4 µg/mL (≈ 9.7 µM) | 4 µg/mL (≈ 9.7 µM) | 4 µg/mL (≈ 9.7 µM) | 16 µg/mL (≈ 38.8 µM) | 8 µg/mL (≈ 19.4 µM) | 32 µg/mL (≈ 77.6 µM) | 4 µg/mL (≈ 9.7 µM) | 4 µg/mL (≈ 9.7 µM) | 8 µg/mL (≈ 19.4 µM)
O=C(O)c1cn(C2CC2)c2cc(N3CCNCC3)c(F)cc2c1=O [CIPROFLOXACIN] | 0.5 µg/mL (≈ 1.51 µM) | ≤ 0.12 µg/mL |  | ≤ 0.12 µg/mL | ≤ 0.12 µg/mL | 0.5 µg/mL (≈ 1.51 µM) |  | > 64 µg/mL | 0.5 µg/mL (≈ 1.51 µM) | ≤ 0.12 µg/mL | ≤ 0.12 µg/mL | 8 µg/mL (≈ 24.1 µM)
CC1(C)S[C@@H]2[C@H](NC(=O)Cc3ccccc3)C(=O)N2[C@H]1C(=O)O [PENICILLIN G] | 4 µg/mL (≈ 12 µM) | < 0.06 µg/mL | < 0.06 µg/mL | 32 µg/mL (≈ 95.7 µM) | > 4 µg/mL | 1 µg/mL (≈ 2.99 µM) | ≤ 0.06 µg/mL | > 32 µg/mL | 4 µg/mL (≈ 12 µM) | > 32 µg/mL | 32 µg/mL (≈ 95.7 µM) | > 32 µg/mL
CN[C@H](CC(C)C)C(=O)N[C@H]1C(=O)N[C@@H](CC(N)=O)C(=O)N[C@H]2C(=O)N[C@H]3C(=O)N[C@H](C(=O)N[C@H](C(=O)O)c4cc(O)cc(O)c4-c4cc3ccc4O)[C@H](O)c3ccc(c(Cl)c3)Oc3cc2cc(c3O[C@@H]2O[C@H](CO)[C@@H](O)[C@H](O)[C@H]2O[C@H]2C[C@](C)(N)[C@H](O)[C@H](C)O2)Oc2ccc(cc2Cl)[C@H]1O [VANCOMYCIN] | 4 µg/mL (≈ 2.76 µM) | 0.12 µg/mL (≈ 0.0828 µM) | 1 µg/mL (≈ 0.69 µM) |  |  |  | 0.12 µg/mL (≈ 0.0828 µM) | > 64 µg/mL | > 64 µg/mL |  |  | 
